Source: US20260083865A1, “PROSTATE SPECIFIC MEMBRANE ANTIGEN (PSMA) LIGANDS AND USE THEREOF” (priority 2022, published 2026)
Read-outs that look alike come from different tables or passages of the source. Numbered stars: 1 amine (or outer) side, 2 acyl side, 3 side chain; on linkers, the order of the positions; unused ones are H or OH. Bridge positions count the residues as written; N and C are the ends. Square brackets hold non-standard residues; d marks the D form. Peptide text beside a SMILES is read from it. * marks the point of attachment. DOTA = O=C(O)CN1CCN(CC(=O)O)CCN(CC(=O)*)CCN(CC(=O)O)CC1; Phe(4-Cl) = N[C@@H](Cc1ccc(Cl)cc1)C(=O)O; Phe(2-Cl) = N[C@@H](Cc1ccccc1Cl)C(=O)O; Thz(5,5-Me2) = CC1(C)SCN[C@@H]1C(=O)O; Arg(Me) = CNC(=N)NCCC[C@H](N)C(=O)O; Ethylenediamine = C(CN[*:2])N[*:1]; d(αMeD) = C[C@@](N)(CC(=O)O)C(=O)O; X1 = O=C(CC1CCN([*:1])CC1)[*:2]; Aad = N[C@@H](CCCC(=O)O)C(=O)O; Lys(Me) = CNCCCC[C@H](N)C(=O)O; Tle = CC(C)(C)[C@H](N)C(=O)O; 4Amb = NCc1ccc(C(=O)O)cc1; αMeS = C[C@](N)(CO)C(=O)O; Nle = CCCC[C@H](N)C(=O)O; Aib = CC(C)(N)C(=O)O; Sar = CNCC(=O)O

How the values were obtained:
[1] = target: T1, PSMA-expressing C4-2 cells (Homo sapiens, UniProt Q04609); assay: FACS binding assay (competition with 50 nM PSM-0183); conditions: C4-2 cells, read-out: pIC50 [C4-2] CAT (converted)
T1 construct: PSMA-expressing C4-2 cells (ATCC, Cat. No. CRL-3314) were cultured in RPMI-1640; host or cells: C4-2 cells
How it was run: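 Competition format: fluorescent tracer PSM-0183 (50 nM) displaced from PSMA on C4-2 cells by a test compound titration over 1 h at 4 °C. Bound tracer was quantified as flow-cytometric AF488 median fluorescence after washing. Four-parameter logistic fits of MFI data gave IC50 and pIC50.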

[2] = target: T2, Fc-fusion protein of human PSMA (hPSMA-Fc) (Homo sapiens, UniProt Q04609); assay: Surface plasmon resonance assay (Biacore T200, single cycle kinetic); format: binding; conditions: read-out: pKD CAT (converted)
T2 construct: purchased Acro Biosystems PSA-H5264
How it was run: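 KD, expressed as pKD, came from 1:1 Langmuir fits of reference- and buffer-blank-subtracted SPR data. The runs were single-cycle kinetics at 25° C in HBST/0.1% DMSO over human PSMA-Fc, captured to ~1000 RU on a peptide-coated CM5 surface and regenerated with 10 mM glycine pH 1.5.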

[3] = pKD category for PSMA SPR activity assay, hPSMA-Fc, 25° C.

T2 sequence (Q04609 44-750 limits assumed): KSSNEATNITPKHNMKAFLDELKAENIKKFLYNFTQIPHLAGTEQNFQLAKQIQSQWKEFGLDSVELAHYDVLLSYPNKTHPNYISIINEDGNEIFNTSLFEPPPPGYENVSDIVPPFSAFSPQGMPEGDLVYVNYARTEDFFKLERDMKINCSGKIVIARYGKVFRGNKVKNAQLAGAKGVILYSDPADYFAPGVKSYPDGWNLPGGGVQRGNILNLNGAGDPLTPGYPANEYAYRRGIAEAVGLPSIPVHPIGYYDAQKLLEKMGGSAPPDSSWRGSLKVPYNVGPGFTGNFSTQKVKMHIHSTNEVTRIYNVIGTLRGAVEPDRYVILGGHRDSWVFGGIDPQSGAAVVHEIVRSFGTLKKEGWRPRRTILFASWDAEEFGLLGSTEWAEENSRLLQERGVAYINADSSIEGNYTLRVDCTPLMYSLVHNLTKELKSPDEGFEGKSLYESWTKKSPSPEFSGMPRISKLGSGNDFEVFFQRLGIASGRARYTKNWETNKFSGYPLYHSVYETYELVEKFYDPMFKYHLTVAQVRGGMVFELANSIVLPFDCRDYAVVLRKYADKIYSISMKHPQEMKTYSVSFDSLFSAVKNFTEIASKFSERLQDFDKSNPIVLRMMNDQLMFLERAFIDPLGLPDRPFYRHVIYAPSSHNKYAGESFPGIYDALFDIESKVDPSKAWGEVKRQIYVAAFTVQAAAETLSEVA
T1 sequence (Q04609 whole entry): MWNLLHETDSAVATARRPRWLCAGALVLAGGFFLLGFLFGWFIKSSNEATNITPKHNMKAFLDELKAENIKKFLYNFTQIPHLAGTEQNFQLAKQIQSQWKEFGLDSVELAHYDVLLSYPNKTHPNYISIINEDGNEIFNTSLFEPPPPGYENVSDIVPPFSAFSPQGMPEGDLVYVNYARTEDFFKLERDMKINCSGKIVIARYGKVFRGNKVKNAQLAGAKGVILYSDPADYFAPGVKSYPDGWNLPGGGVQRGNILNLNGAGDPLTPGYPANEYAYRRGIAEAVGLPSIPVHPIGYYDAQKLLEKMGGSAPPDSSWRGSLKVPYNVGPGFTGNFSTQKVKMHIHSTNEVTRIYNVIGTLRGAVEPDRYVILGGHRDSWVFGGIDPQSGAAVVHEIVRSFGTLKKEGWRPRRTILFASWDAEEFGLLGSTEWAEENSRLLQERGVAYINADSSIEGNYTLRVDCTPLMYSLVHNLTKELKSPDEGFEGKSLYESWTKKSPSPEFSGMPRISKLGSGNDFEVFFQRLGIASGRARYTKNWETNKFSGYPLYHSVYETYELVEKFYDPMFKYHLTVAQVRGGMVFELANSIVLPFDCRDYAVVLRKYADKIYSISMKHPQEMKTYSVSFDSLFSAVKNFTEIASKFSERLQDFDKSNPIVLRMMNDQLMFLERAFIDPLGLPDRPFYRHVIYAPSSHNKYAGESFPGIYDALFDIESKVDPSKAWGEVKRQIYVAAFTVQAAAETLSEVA

| SMILES | IC50 ([1]; pIC50 category of FACS binding) [nM] | Kd [2, 3] [nM] | IC50 ([1]; FACS binding, category) [nM] | Kd ([2]; PSMA SPR assay, category) [nM] |
| --- | --- | --- | --- | --- |
| CC(=O)N[C@H](C(=O)NC(C)(C)C(=O)N[C@@H](Cc1ccccc1)C(=O)N[C@H]1CSSC[C@@H](C(=O)N[C@H](C(=O)N[C@H](C(=O)N[C@@H](CC(=O)O)C(N)=O)[C@@H](C)O)C(C)(C)C)NC(=O)[C@H](CC(N)=O)NC(=O)[C@H]2N(CSC2(C)C)C(=O)[C@H](CCCNC(=N)N)NC(=O)[C@H](CCCCN)NC1=O)[C@@H](C)O [PSM-0532, Ac-Thr-Aib-Phe-[Cys-Lys-Arg-Dtc-Asn-Cys]-Tle-Thr-Asp-NH2] (Ac-T[Aib]FCKR[Thz(5,5-Me2)]NC[Tle]TD-NH2; disulfide 4-9) | < 200 | < 12.6 | – | – |
| CC(=O)N[C@H](C(=O)N(C)CC(=O)N[C@@H](Cc1ccccc1)C(=O)N[C@H]1CSSC[C@@H](C(=O)N[C@H](C(=O)N[C@H](C(N)=O)[C@@H](C)O)C(C)(C)C)NC(=O)[C@H](CC(N)=O)NC(=O)C(C)(C)NC(=O)[C@H](CCCNC(=N)N)NC(=O)[C@H](CCCCN)NC1=O)[C@@H](C)O [PSM-0408, Ac-Thr-Nmg-Phe-[Cys-Lys-Arg-Aib-Asn-Cys]-Tle-Thr-NH2] (Ac-T[Sar]FCKR[Aib]NC[Tle]T-NH2; disulfide 4-9) | 200 to 1260 | 126 to 501 | – | – |
| CC(=O)N[C@H](C(=O)NC(C)(C)C(=O)N[C@@H](Cc1ccccc1Cl)C(=O)N[C@H]1CSSC[C@@H](C(=O)N[C@H](C(=O)N[C@H](C(=O)N[C@@H](CC(=O)O)C(N)=O)[C@@H](C)O)C(C)(C)C)NC(=O)[C@H](CC(N)=O)NC(=O)C(C)(C)NC(=O)[C@H](CCCNC(=N)N)NC(=O)[C@H](CCCCN)NC1=O)[C@@H](C)O [PSM-0558, Ac-Thr-Aib-Ocf-[Cys-Lys-Arg-Aib-Asn-Cys]-Tle-Thr-Asp-NH2] (Ac-T[Aib][Phe(2-Cl)]CKR[Aib]NC[Tle]TD-NH2; disulfide 4-9) | < 200 | 12.6 to 126 | – | – |
| CC(C)(NC(=O)c1ccc(CNC(=O)CN2CCN(CC(=O)O)CCN(CC(=O)O)CCN(CC(=O)O)CC2)cc1)C(=O)N[C@@H](Cc1ccc(Cl)cc1)C(=O)N[C@H]1CSSC[C@@H](C(=O)N[C@H](C(N)=O)C(C)(C)C)NC(=O)[C@H](CC(N)=O)NC(=O)C(C)(C)NC(=O)[C@H](CCCNC(=N)N)NC(=O)[C@H](CCCCN)NC1=O [PSM-0381, DOTA-Pamb-Aib-Pcf-[Cys-Lys-Arg-Aib-Asn-Cys]-Tle-NH2] ({DOTA-4Amb}-[Aib][Phe(4-Cl)]CKR[Aib]NC[Tle]-NH2; disulfide 3-8) | < 200 | < 12.6 | – | – |
| CCCC[C@@H]1NC(=O)[C@@H](NC(=O)[C@H](Cc2ccc(Cl)cc2)NC(=O)C(C)(C)NC(=O)[C@@H](NC(C)=O)[C@@H](C)O)CSSC[C@@H](C(=O)N[C@H](C(=O)N[C@H](C(N)=O)[C@@H](C)O)C(C)(C)C)NC(=O)[C@H](CC(N)=O)NC(=O)C(C)(C)NC(=O)[C@H](CCCNC(=N)NC(C)=O)NC1=O [PSM-0570, Ac-Thr-Aib-Pcf-[Cys-Nle-Arg(Ac)-Aib-Asn-Cys]-Tle-Thr-NH2] (Ac-T[Aib][Phe(4-Cl)]C[Nle]R(Ac)[Aib]NC[Tle]T-NH2; disulfide 4-9) | – | – | < 200 | 12.6 to 126 |
| CNCCCC[C@@H]1NC(=O)[C@@H](NC(=O)[C@H](Cc2ccc(Cl)cc2)NC(=O)C(C)(C)NC(=O)[C@@H](NC(=O)CC2CCN(C(=O)CN3CCN(CC(=O)O)CCN(CC(=O)O)CCN(CC(=O)O)CC3)CC2)[C@@H](C)O)CSSC[C@@H](C(=O)O)NC(=O)[C@H](CC(N)=O)NC(=O)C(C)(C)NC(=O)[C@H](CCCNC(=N)NC)NC1=O [PSM-0594, DOTA-Cmp-Thr-Aib-Pcf-[Cys-Lys(Me)-Arg(Me)-Aib-Asn-Cys]-OH] ({DOTA}-[X1]T[Aib][Phe(4-Cl)]C[Lys(Me)][Arg(Me)][Aib]NC-OH; disulfide 5-10) | – | – | 1260 to 3160 | > 501 |
| CC(=O)N[C@H](C(=O)NC(C)(C)C(=O)N[C@@H](Cc1ccccc1)C(=O)N[C@H]1CSSC[C@@H](C(=O)N[C@H](C(=O)N[C@H](C(N)=O)[C@@H](C)O)C(C)(C)C)NC(=O)[C@H](Cc2ccccc2)NC(=O)C(C)(C)NC(=O)[C@H](CCCNC(=N)N)NC(=O)[C@H](CCCCN)NC1=O)[C@@H](C)O [PSM-0541, Ac-Thr-Aib-Phe-[Cys-Lys-Arg-Aib-Phe-Cys]-Tle-NH2] (Ac-T[Aib]FCKR[Aib]FC[Tle]T-NH2; disulfide 4-9) | < 200 | < 12.6 | – | – |

Second part, the compound after the results:

| IC50 ([1]; pIC50 category of FACS binding) [nM] | Kd [2, 3] [nM] | IC50 ([1]; FACS binding, category) [nM] | Kd ([2]; PSMA SPR assay, category) [nM] | SMILES |
| --- | --- | --- | --- | --- |
| 200 to 1260 | 126 to 501 | – | – | C[C@@H](O)[C@H](NC(=O)[C@@H](NC(=O)[C@@H]1CSSC[C@H](NC(=O)[C@H](Cc2ccc(Cl)cc2)NC(=O)[C@@](C)(CC(=O)O)NC(=O)[C@@H](NC(=O)CC2CCN(C(=O)CN3CCN(CC(=O)O)CCN(CC(=O)O)CCN(CC(=O)O)CC3)CC2)[C@@H](C)O)C(=O)N[C@@H](CCCCN)C(=O)N[C@@H](CCCNC(=N)N)C(=O)NC(C)(C)C(=O)N[C@@H](CC(N)=O)C(=O)N1)C(C)(C)C)C(N)=O [PSM-0366, DOTA-Cmp-Thr-amd-Pcf-[Cys-Lys-Arg-Aib-Asn-Cys]-Tle-Thr-NH2] ({DOTA}-[X1]T[d(αMeD)][Phe(4-Cl)]CKR[Aib]NC[Tle]T-NH2; disulfide 5-10) |
| < 200 | < 12.6 | – | – | CC(=O)N1CCC(CC(=O)N[C@H](C(=O)NC(C)(C)C(=O)N[C@@H](Cc2ccc(Cl)cc2)C(=O)N[C@H]2CSSC[C@@H](C(=O)N[C@H](C(=O)NCCNC(=O)CN3CCN(CC(=O)O)CCN(CC(=O)O)CCN(CC(=O)O)CC3)C(C)(C)C)NC(=O)[C@H](CC(N)=O)NC(=O)C(C)(C)NC(=O)[C@H](CCCNC(=N)N)NC(=O)[C@H](CCCCN)NC2=O)[C@@H](C)O)CC1 [PSM-0379, Ac-Cmp-Thr-Aib-Pcf-[Cys-Lys-Arg-Aib-Asn-Cys]-Tle-en-DOTA] (Ac-[X1]T[Aib][Phe(4-Cl)]CKR[Aib]NC[Tle]-{Ethylenediamine-DOTA}; disulfide 5-10) |
| < 200 | < 12.6 | – | – | C[C@@H](O)[C@H](NC(=O)[C@@H](NC(=O)[C@@H]1CSSC[C@H](NC(=O)[C@H](Cc2ccc(Cl)cc2)NC(=O)[C@](C)(CO)NC(=O)[C@@H](NC(=O)CC2CCN(C(=O)CN3CCN(CC(=O)O)CCN(CC(=O)O)CCN(CC(=O)O)CC3)CC2)[C@@H](C)O)C(=O)N[C@@H](CCCCN)C(=O)N[C@@H](CCCNC(=N)N)C(=O)N[C@@](C)(CO)C(=O)N[C@@H](CC(N)=O)C(=O)N1)C(C)(C)C)C(N)=O [PSM-0407, DOTA-Cmp-Thr-Ams-Pcf-[Cys-Lys-Arg-Ams-Asn-Cys]-Tle-Thr-NH2] ({DOTA}-[X1]T[αMeS][Phe(4-Cl)]CKR[αMeS]NC[Tle]T-NH2; disulfide 5-10) |
| < 200 | < 12.6 | – | – | C[C@@H](O)[C@H](NC(=O)[C@@H](NC(=O)[C@@H]1CSSC[C@H](NC(=O)[C@H](Cc2ccc(Cl)cc2)NC(=O)C(C)(C)NC(=O)[C@@H](NC(=O)CC2CCN(C(=O)CN3CCN(CC(=O)O)CCN(CC(=O)O)CCN(CC(=O)O)CC3)CC2)[C@@H](C)O)C(=O)N[C@@H](CCCC(N)=O)C(=O)N[C@@H](CCCNC(=N)N)C(=O)NC(C)(C)C(=O)N[C@@H](CC(N)=O)C(=O)N1)C(C)(C)C)C(N)=O [PSM-0485, DOTA-Cmp-Thr-Aib-Pcf-[Cys-Hgn-Arg-Aib-Asn-Cys]-Tle-Thr-NH2] ({DOTA}-[X1]T[Aib][Phe(4-Cl)]C[Aad](NH2)R[Aib]NC[Tle]T-NH2; disulfide 5-10) |
